Assays:
H1975 tumor cell line = assay: treatment of H1975 tumor cell line; assay type: cell-based; conditions: H1975, EGFR T790M in combination with L858R
[1] = combined with paclitaxel, cisplatin, gemcitabine, and doxorubicin; cited from earlier work
HN5 xenografts = conditions: nude mice; cited from earlier work
A431 xenografts = conditions: nude mice; cited from earlier work

C#Cc1cccc(Nc2ncnc3cc(OCCOC)c(OCCOC)cc23)c1 [erlotinib]
response of tumor cell line to treatment (H1975 tumor cell line): exhibited resistance | interaction with chemotherapy agents [1]: additive interaction | growth inhibition of HN5 xenografts (HN5 xenografts): marked growth inhibition | growth inhibition of A431 xenografts (A431 xenografts): marked growth inhibition

Reference: US8987266B2, “EGFR mutations” (Genentech, Inc., priority 2004, dated 2015)
